Data as given in patent US11738099B2, “Molecular probes and methods of use” (CASE WESTERN RESERVE UNIVERSITY, priority 2014, dated 2023).
Where a SMILES comes first, the peptide text is derived from it. The star is where a group is joined. X1 = O=C(O)CN1CCN(CC(=O)O)CCN(CC(O)Cn2cc(CCCC(=O)*)nn2)CCN(CC(=O)O)CC1; PEG2 = NCCOCCOCCC(=O)O

Assays:
[1] = Relaxivity measurement at 7T in PBS; type: physicochemical
Method: To accurately capture T1 maps, a fast T1 mapping method was developed. This accelerated multi-slice T1-mapping method combines a saturation recovery look-locker sequence and spiral k-space sampling^40. The NMR tubes filled with 3.12-50 μM ZD2-Gd(HP-DO3A) were positioned in a mouse coil and scanned with T1-weighted spin echo sequence, cartesian T1-mapping sequence, and spiral T1-mapping sequence. Axial images were acquired. CNR values from the T1-weighted sequence were calculated from signal from the samples subtracting surrounding water signal, and divided by noise. T1 values of the samples were reconstructed by fitting signal change during the acquisition time to the adapted T1-relaxation curve.

[2] = In vitro transmetallation in serum; type: in vitro ADME, human; conditions: blood plasma containing Cu2+, Ca2+, Zn2+; vs MultiHance and OmniScan
Method: […] The plasma mixtures were transferred to CF-10 centrifugal filters (molecular weight cut-off 10 KDa) and centrifuged at 4,000 rpm and 25° C. for 150 min. During centrifugation, the solution in the upper reservoir was agitated using a pipette every 20 min for the plasma mixtures. The content of metal ions in both the upper reservoir and the filtrates was determined by ICP-OES after appropriate dilution. The degree of transmetallation of the contrast agents with Zn(II) or Cu(II) ions in the plasma was evaluated using the percentage of Zn(II) or Cu(II) ions filtered through the membrane, calculated as Zn(Cu) %=(concentration of Zn(II) or Cu(II) in the filtrates)/(total Zn(II) or Cu(II) concentration before centrifugal filtration)×100. Human serum was used a control.

[3] = system: PC3 prostate tumor xenografts; assay: In vivo T1-weighted MRI at 7T, PC3 tumors; parameters: species or system mouse
Method: (§1) All MRI experiments were performed on a horizontal 7T Bruker scanner (Bruker Biospin Co., Billerica, Mass.). Imaging experiments were performed when the tumor size reached 5-8 mm in diameter. ZD2-Gd(HP-DO3A) was administered intravenously at the dose of 0.1 mmol/kg after acquiring pre-contrast images. Post-contrast images were obtained at 10 min interval up to 30 min. The axial slices of mouse at the tumor location were acquired using T1-weighted spin echo sequence with the following parameters: field of view (FOV): 3 cm; slice thickness: 1.2 mm; interslice distance: 1.2 mm; TR: 500 ms, TE: 8.1 ms; flip angle: 90°; average: 2; matrix size: 128×128. Contrast-to-noise ratio (CNR) at each time point was calculated by subtraction of the average signal intensity in the tumor and muscle, divided by the standard deviation of image noise. ProHance® (gadoteridol) was used as a control in the imaging experiments.

[4] = system: LNCaP prostate tumor xenografts; assay: In vivo T1-weighted MRI at 7T, LNCaP tumors; parameters: species or system mouse
Method: as §1

[5] = Relaxivity at 1.5T in water, 37° C.; type: physicochemical
Method: Relaxivity is an important parameter for an MR contrast agent. It reflects how the relaxation rate of the surrounding water proton changes as a function of concentration, and it is directly associated with the agent's contrast enhancing capability during imaging. The relaxivity of the 4 contrast agents was tested at 37° C. in water and compared to Gd(HP-DO3A), Gd-DOTA and ZD2-Gd(HP-DO3A) (FIG. 26). […] Compared to Gd(HP-DO3A), Gd-DOTA, the size increase of the targeted contrast agents due to the peptides and PEG spacer could result in an increase of τR,^[42, 43] thus leading to higher relaxivities.

[6] = 0.1 mmol/kg i.v., up to 30 min, 7T

## CC(C)[C@H](NC(=O)[C@@H](NC(=O)CCOCCOCCNC(=O)CCCc1cn(CC(O)CN2CCN(CC(=O)O)CCN(CC(=O)O)CCN(CC(=O)O)CC2)nn1)[C@@H](C)O)C(=O)N[C@@H](CCCNC(=N)N)C(=O)N[C@H](C(=O)N[C@@H](CO)C(=O)N[C@@H](C)C(=O)N[C@@H](CC(=O)O)C(=O)O)[C@@H](C)O (some centres unmarked) [ZD2-Gd(HP-DO3A)] ({X1-PEG2}-TVRTSAD-OH)
[1]
  T1 relaxivity: 3.7 mM⁻¹ s⁻¹
[2]
  stability against transmetallation: same high stability as ProHance
[3]; [6]
  signal enhancement in PC3 tumors: Strong signal enhancement
[3]; 0.1 mmol/kg with 0.5 mmol/kg free ZD2 peptide
  signal enhancement and CNR in PC3 tumors with co-injection of free ZD2 peptide: significantly reduced
[3]; 10-30 min post-injection
  CNR in PC3 tumors: 12-25
[3]; 10 min after injection
  increase of CNR in PC3 tumors: over two-fold increase
[3]; 30 min
  increase of CNR in PC3 tumors: over five-fold increase
[3]; 30 min (peak), n=5, SEM
  CNR in PC3 tumors: 23.7±1.68
[3]; mouse, in vivo
  contrast enhancement in other organs and normal tissues: did not produce significant contrast enhancement
[4]; [6]
  signal enhancement in LNCaP tumors: significantly lower signal enhancement
[4]; 10-30 min post-injection
  CNR in LNCaP tumors: 6-9
[4]; during the first 30 min after injection
  increase of CNR in LNCaP tumors: 10-60%
[4]; first 30 min
  CNR in LNCaP tumors relative to PC3 tumors: more than two times lower
[5]
  r1: 5.4 mM⁻¹ s⁻¹
